Measured values published in US9126060B2, “Cosmetic use of geranylgeranyl-2-propanol” (SEDERMA, priority 2010, dated 2015).

How the values were obtained:
β-galactosidase = assay: Cell-free β-galactosidase inhibition check; type: biochemical; conditions: cell-free system
collagen I = assay: Collagen I synthesis in presenescent fibroblasts (immunofluorescence, image analysis); type: cell-based, human; conditions: for collagen I: senescent cells, 11 days, n = 20 photos
Description: Principle: The collagen I synthesis was monitored in pre-senescent human dermal fibroblasts. These cells were cultured for 11 days with the GGP in a growth medium. Following this incubation, the cell layers were fixed and labeled by immunofluorescence, to visualize the network of collagen I and to quantify by image analysis on photographs. In parallel, quantification was performed on proliferating cells.

[1] = system: Normal human dermal fibroblasts; assay: Mean telomere length of fibroblasts in natural senescence (real-time quantitative PCR); type: cell-based; conditions: 1.65 ppm
Text: The applicant has performed the average length measurement of the telomeres of a culture by a rapid method using PCR (Polymerase Chain Reaction) real-time quantitative.
This method relies on the use of two oligonucleotide primers specific of the telomeric repeat sequence (TTAGGG) and thus capable of hybridizing themselves to each of the two complementary strands of telomeric DNA, and then able to be amplified during the PCR cycles proportionally to the average length of telomeres of the genomic DNA of a given culture. A fluorescent molecule, intercalated into DNA double strand, is used to quantify the phenomenon (hybridization+amplification) at the end of each cycle. The parameter for evaluating the significance of this phenomenon is the Ct, cycle number of hybridization amplification necessary to reach a given fluorescence threshold above background noise.
Each Ct will be converted into an average length of telomeres, with a reference range obtained with successive dilutions from a standard solution of a synthetic oligonucleotide of 84 bases, consisting of 14 repeats of the TTAGGG sequence, each of these dilutions (or point range) being subjected to real-time quantitative PCR.
To be accurate, the assessment must take into account the number of genomes present. The latter will be appreciated by a PCR conducted in parallel with a control gene, 36B4, encoding a ribosomal phosphoprotein with two primers (oligonucleotides) specific for this gene. The Ct obtained in this PCR will be converted into a number of genomes using a standard range made from an oligonucleotide of 75 bases, representing the amplicon obtained with primers specific to 36B4.
Therefore is obtained for each total DNA extracts from a given culture, an average length of telomere per genome.
Principle: Normal human dermal fibroblasts are grown on several cell passages, in contact or not with the GGP until a strong slowdown and little or not proliferative cells. At this stage, cultures are stopped, DNA extracted and the average telomere length measured for each culture.

fibroblasts = assay: DNA array gene expression on fibroblasts; type: cell-based
human dermal fibroblasts = assay: Senescence associated β-galactosidase activity in fibroblasts after oxidising stress (FDG fluorimetry); type: cell-based; conditions: for β-galactosidase relative activity: after oxidising stress, n = 4
Description: Principle: Proliferative human dermal fibroblasts were contacted or not with the GGP for 72 hours in a growth medium. After this first incubation, the cells were subjected for 5 days to an oxidative stress daily, one hour each, in a basic medium, common to all cultures. This stress is known to create a SIPS and to induce a strong increase in β-galactosidase activity in the stressed culture compared to an unstressed culture. Between two stress cells are returned to the growth medium with or without the substance tested. After the fifth stress, β-galactosidase activity is evaluated.
Evaluation of β-galactosidase activity is done after fixing the layers. They are put in contact with a substrate of β-galactosidase nonfluorescent FDG (fluorescein di-β-galactopyranoside), which will release a fluorescent compound upon hydrolysis by β-galactosidase. The emitted fluorescence is quantified in a fluorometer. It will increase with the amount of senescent cells present in culture. The relative activity of β-galactosidase thus found is 2974+/−957 UFA/million cells in a proliferative culture and increases by a factor 5 (p<0.01) in a culture little to not proliferative.

fibroblasts (FHN) = assay: Intracellular peroxide level (DCFH-DA probe) in fibroblasts after SIPS; type: cell-based, human; conditions: 3 ppm
Description: Principle: Fibroblasts at confluence contacted or not with the GGP for several days, are subjected to oxidative stress by hydrogen peroxide in the presence or absence of the GGP. This stress is intended to induce premature senescence in cells.
After this initial stress, the cells were detached from the support and returned to culture at low density until confluence. They are then contacted or not with the compound of the invention for 24 hours. At this stage, each set of cultures (with or without the tested compounds) is divided into 2 lots. A first batch (not stressed) is evaluated directly for its concentration of intracellular peroxides (using the probe DCFH-DA). Simultaneously, the other batch (stressed) undergoes a second stress by hydrogen peroxide (weaker than the first) just before being evaluated in the same way regarding the concentration of intracellular peroxides.
The amount of fluorescence measured with this probe is directly proportional to the amount of peroxides present in the cells.

human melanocytes = assay: Melanin content of human melanocytes; type: cell-based; conditions: for Melanin content: 5 days, n = 4
Description: Principle: Human melanocytes are seeded and placed in contact with the GGP for 5 days. After incubation, the residual tyrosinase activity and total melanin content were measured in cell homogenates, and then divided by the number of cells (melanin) or to the protein amount (tyrosinase).

stratum corneum = assay: Ex vivo lipoperoxidation of stratum corneum extracts from volunteers (8-isoprostanes ELISA); type: in vivo, human; conditions: cream containing 0.04% of GGP 2 times daily for 2 months on forearm; compared with placebo extracts; H2O2/FeCl2 stress; 13 volunteers
Text: Lipids of the stratum corneum are the primary targets of free radical aggressions. Thus, it seemed interesting to test the antiradical capacity of the GGP in ex vivo condition on extracts of stratum corneum from volunteers who applied for 2 months, on one arm a placebo cream and on the other arm the GGP cream (Formulation 2/2 in the examples given above). These extracts are stressed to oxidize lipids. A lower oxidation in skin extracts which were in contact with the GGP is seeked.
Principle: 13 volunteers have applied 2 times daily for 2 months in a randomized manner the cream containing 0.04% of GGP on one forearm. The placebo cream was applied controlateral. Each subject was therefore their own control. At T0 and T2, specimens of stratum corneum were taken on the 2 arms with 3 adhesive discs per aim, and for each disk 15 take off (saturation of the disk).
The disks were stored at −20° C. until lipoperoxidation testing. After rapid thawing at room temperature, the 3 discs from the same arms were collected and sonicated in a suitable diluent, to take off and recover the maximum amount of stratum corneum samples. The resulting suspension was then stressed overnight at 45° C., using a H2O2/FeCl2 solution. The lipid peroxidation was assessed by measuring 8-isoprostanes (ELISA assay). The data were normalized using a protein assay.

[2] = after 3, 6 and 24 hours of contact
[3] = after 6 and 24 hours of contact

CC(C)=CCC/C(C)=C/CC/C(C)=C/CC/C(C)=C/CCC(C)O (stereo not drawn) [GGP, 6,10,14,18-tetramethylnonadeca-5,9,13,17-tetraen-2-ol]
inhibition of β-galactosidase (β-galactosidase): not an inhibitor of β-galactosidase | Change (%) of collagen I vs senescent cells (collagen I; 3 ppm): +367%; p < 0.01 | collagen I (collagen I; 3 ppm): 280 +/− 220 UFA/10^4 cell | Change (%) of collagen I vs senescent cells (collagen I; 5 ppm): +483%; p < 0.01 | collagen I (collagen I; 5 ppm): 350 +/− 290 UFA/10^4 cell | Mean telomere length ([1]; presenescent cells, n = 3): 8.35 +/− 0.75 kb/genome | protection against natural telomere erosion (length vs control) ([1]; vs presenescent control): +1.45 kb → | Telomere erosion due to aging ([1]; vs proliferative cells): −2.31 kb; nsd kb/genome | gene expression of actin gamma 2 (ACTG2) (fibroblasts; [2]): increase in gene expression | gene expression of filament associated actin protein (AFAP1L1) (fibroblasts; [2]): increase in gene expression | gene expression of hyaluronic acid synthase 2 (fibroblasts; [2]): increase in gene expression | expression of JMJD6 gene (fibroblasts; [3]): increased expression | expression of PLOD2 gene (fibroblasts; [3]): increased expression | Change with regard to control (β-galactosidase) (human dermal fibroblasts; 3 ppm): −35%; p = 0.05 | β-galactosidase relative activity (human dermal fibroblasts; 3 ppm): 3702 +/− 992 FAU/10^6 cells | Change with regard to control (β-galactosidase) (human dermal fibroblasts; 5 ppm): −51%; p < 0.02 | β-galactosidase relative activity (human dermal fibroblasts; 5 ppm): 2789 +/− 803 FAU/10^6 cells | Endogen peroxides (fibroblasts (FHN); SIPS fibroblasts subjected to a second oxidant stress): 161 +/− 14 UFA/million of cells | % Change/Control of endogen peroxides (fibroblasts (FHN); after SIPS, not stressed again): −40%; p < 0.01 | Endogen peroxides (fibroblasts (FHN); after SIPS, not stressed again): 61.2 +/− 2.6 UFA/million of cells | Change (%) of melanin content vs control (human melanocytes; 1 ppm): −4%; nsd | Melanin content (human melanocytes; 1 ppm): 46.6 +/− 2.4 μg/mL/10^6 cell | Change (%) of melanin content vs control (human melanocytes; 3 ppm): −36%; p < 0.01 | Melanin content (human melanocytes; 3 ppm): 31.3 +/− 1.4 μg/mL/10^6 cell | Change (%) of melanin content vs control (human melanocytes; 5 ppm): −59%; p < 0.01 | Melanin content (human melanocytes; 5 ppm): 20.2 +/− 1.3 μg/mL/10^6 cell | level of protection against oxidation (stratum corneum): +44%
